The results in this text go back to paper PMC11857663, “Geliboluols A–D: Kaurane-Type Diterpenoids from the Marine-Derived Rare Actinomycete Actinomadura geliboluensis” (Marine Drugs, 2025).

What all share (type): cell-based
Test [1] concerns WSU-DLCL2 (diffuse large B-cell lymphoma, DLBCL). The experiment in a line: CellTiter-Glo (CTG) cytotoxicity assay, WSU-DLCL2. To be noted: Homo sapiens, WSUDLCL2, 48 h, read-out: Growth inhibition 50% (GI50) WSU-DLCL2. Here is the method: (§1) Compounds 1–5 were evaluated for their cytotoxicity against seven blood cancer cell lines, the most common cancer types in Korea, along with a normal cell line: HL-60 (acute myelogenous leukemia, AML), Raji (Burkitt’s lymphoma), WSU-DLCL2 (diffuse large B-cell lymphoma, DLBCL), NALM6 C. G5 (B-cell acute lymphocytic leukemia, B-ALL), K562 (chronic myelogenous leukemia, CML), RPMI-8402 (T-cell acute lymphocytic leukemia, T-ALL), U266 (multiple myeloma), and RPMI-1788 (B lymphocytes, normal cell line).
(§2) The cytotoxicity test was conducted with CTG luminescent cell viability and SRB assay according to the published procedures. Briefly, blood cancer cell lines and a normal cell line were obtained from the American Type Culture Collection (Manassas, VA, USA) (HL-60: acute myelogenous leukemia, Raji: Burkitt’s lymphoma, NALM6 C. G5: B-cell acute lymphocytic leukemia, K562: chronic myelogenous leukemia, U266: multiple myeloma, and RPMI-1788: B lymphocytes) and the DSMZ-German Collection of Microorganisms and Cell Cultures (WSU-DLCL2: diffuse large B-cell lymphoma and RPMI-8402: T-cell acute lymphocytic leukemia). The cell lines were incubated in RPMI 1640 supplemented with 10% fetal bovine serum, penicillin (100 IU/mL), and streptomycin (100 µg/mL) at 37 °C under a humidified atmosphere of 5% CO2. The cells with a passage number between 8 and 12 were used. The cell lines were prepared in an opaque-walled 96-well plate (8 × 10^3 cells/well), and the compounds (1–5 and doxorubicin as a positive control) with 0.1% DMSO were added to each well and incubated for 48 h. The cell cultures were then treated with 100 µL of CellTiter-Glo Reagent (Promega, Madison, WI, USA) and kept for 10 min to acquire a luminescence signal. Luminescence measurements were performed with the GloMax-Multi Detection System (Promega, Madison, WI, USA). The solid cancer cell lines and the normal cell line were obtained from the American Type Culture Collection (Manassas, VA, USA) (ACHN: renal, MDA-MB-231: breast, PC-3: prostate, NCI-H23: lung, HCT-15: colon, and MRC-9: lung fibroblast) and the Japanese Cancer Research Resources Bank (JCRB) (NUGC-3: stomach). The cell lines were incubated in RPMI 1640 supplemented with 10% fetal bovine serum, penicillin (100 IU/mL), and streptomycin (100 µg/mL) at 37 °C under a humidified atmosphere of 5% CO2. The cells with a passage number between 8 and 12 were used. The cells were then prepared in a 96-well plate (8 × 10^3 cells/well), and the compounds (1–5 and adriamycin as a positive control) with 0.1% DMSO were added to each well. After incubation for 48 h, the cell cultures were fixed using 50% trichloroacetic acid ([…]) and were dyed with 0.4% SRB in 1% acetic acid. Unbound dye was washed using 1% acetic acid and protein-bound dye was collected with 10 mM Tris base (pH 10.5) to measure optical density. Absorbance was measured at 540 nm with a VersaMax microplate reader (Molecular Devices, Sunnyvale, CA, USA) and GI50 values were calculated by GraphPad Prism 4.0 (GraphPad, San Diego, CA, USA).

Test [2] concerns MRC-9 (lung fibroblast, normal cell line). The experiment in a line: Sulforhodamine B (SRB) cytotoxicity assay, MRC-9 normal cell line. To be noted: MRC9, 48 h, read-out: Growth inhibition 50% (GI50) MRC-9. Here is the method: (§3) Compounds 1–5 were further evaluated for their cytotoxicity against six solid cancer cell lines and a normal cell line: ACHN (renal), MDA-MB-231 (breast), PC-3 (prostate), NUGC-3 (stomach), NCI-H23 (lung), HCT-15 (colon), and MRC-9 (lung fibroblast, normal cell line). […] Additionally, compounds 1–5 were evaluated for their antimicrobial properties by applying the broth microdilution method, described by the Clinical and Laboratory Standards Institute, against three Gram-positive bacteria, Bacillus subtilis (KCTC 1021), Micrococcus luteus (KCTC 1915), and Staphylococcus aureus (KCTC 1927), and three Gram-negative bacteria, Escherichia coli (KCTC 2441), Salmonella enterica serovar Typhimurium (KCTC 2515), and Klebsiella pneumoniae (KCTC 2690).
as §2

Another test has as its system HCT-15 (colon). The experiment in a line: Sulforhodamine B (SRB) cytotoxicity assay, HCT-15. As to conditions: Homo sapiens; HCT-15, SRB assay, 48 h; read-out: Growth inhibition 50% (GI50) HCT-15. The procedure: as §3, §2
In test [3] the test system is RPMI-8402 (T-cell acute lymphocytic leukemia, T-ALL). The experiment in a line: CellTiter-Glo (CTG) cytotoxicity assay, RPMI-8402. As to conditions: Homo sapiens; RPMI-8402, CTG assay, 48 h; read-out: Growth inhibition 50% (GI50) RPMI-8402. The procedure: as §1, §2
The subject of the next test is ACHN (renal). The experiment in a line: Sulforhodamine B (SRB) cytotoxicity assay, ACHN. As to conditions: Homo sapiens, 48 h, read-out: Growth inhibition 50% (GI50) ACHN. The procedure:
as §3, §2
A general note: Sulforhodamine B stains cellular protein and so reports cell mass.

Test [4] concerns NALM6 C. G5 (B-cell acute lymphocytic leukemia, B-ALL). As to the kind of experiment: CellTiter-Glo (CTG) cytotoxicity assay, NALM6 C. G5. To be noted: Homo sapiens, NALM-6, 48 h, read-out: Growth inhibition 50% (GI50) NALM6 C. G5. Here is the method:
as §1, §2

Test [5] has as its system K562 (chronic myelogenous leukemia, CML). The experiment in a line: CellTiter-Glo (CTG) cytotoxicity assay, K562. As to conditions: Homo sapiens, 48 h, read-out: Growth inhibition 50% (GI50) K562. The procedure: as §1, §2
Background: Cellular ATP, detected with luciferase, serves as a proxy for viable cell number.

The subject of the next test is NUGC-3 (stomach). As to the kind of experiment: Sulforhodamine B (SRB) cytotoxicity assay, NUGC-3. To be noted: Homo sapiens; NUGC-3, SRB assay, 48 h; read-out: Growth inhibition 50% (GI50) NUGC-3. Here is the method: as §3, §2
For another test, the system named is MDA-MB-231 (breast). As to the kind of experiment: Sulforhodamine B (SRB) cytotoxicity assay, MDA-MB-231. As to conditions: Homo sapiens; MDA-MB-231, SRB assay, 48 h; read-out: Growth inhibition 50% (GI50) MDA-MB-231. Here is the method:
as §3, §2

The subject of test [6] is RPMI-1788 (B lymphocytes, normal cell line). As to the kind of experiment: CellTiter-Glo (CTG) cytotoxicity assay, RPMI-1788 normal cell line. To be noted: 48 h, read-out: Growth inhibition 50% (GI50) RPMI-1788. The procedure: as §1, §2
The next test relates to NCI-H23 (lung). As to the kind of experiment: Sulforhodamine B (SRB) cytotoxicity assay, NCI-H23. To be noted: Homo sapiens, 48 h, read-out: Growth inhibition 50% (GI50) NCI-H23. The procedure: as §3, §2
A further test concerns PC-3 (prostate). As to the kind of experiment: Sulforhodamine B (SRB) cytotoxicity assay, PC-3. To be noted: PC-3, SRB assay, 48 h; read-out: Growth inhibition 50% (GI50) PC-3. The procedure:
as §3, §2

Test [7] has as its system HL-60 (acute myelogenous leukemia, AML). As to the kind of experiment: CellTiter-Glo (CTG) cytotoxicity assay, HL-60. As to conditions: Homo sapiens; HL-60, CTG assay, 48 h; read-out: Growth inhibition 50% (GI50) HL-60. Here is the method:
as §1, §2

Test [8] deals with Raji (Burkitt's lymphoma). The experiment in a line: CellTiter-Glo (CTG) cytotoxicity assay, Raji. To be noted: Homo sapiens, 48 h, read-out: Growth inhibition 50% (GI50) Raji. Here is the method:
as §1, §2

Another test concerns U266 (multiple myeloma). As to the kind of experiment: CellTiter-Glo (CTG) cytotoxicity assay, U266. To be noted: Homo sapiens, U-266, 48 h, read-out: Growth inhibition 50% (GI50) U266. Here is the method: as §1, §2
For a further test, the system named is blood cancer cell lines. The experiment in a line: CTG cytotoxicity assay, panel of blood cancer cell lines. To be noted: 48 h, read-out: GI50 values against blood cancer cell lines (range over the panel). The procedure: as §1
(§4) The cytotoxicity test was conducted with CTG luminescent cell viability and SRB assay according to the published procedures. […] The cell cultures were then treated with 100 µL of CellTiter-Glo Reagent (Promega, Madison, WI, USA) and kept for 10 min to acquire a luminescence signal. Luminescence measurements were performed with the GloMax-Multi Detection System (Promega, Madison, WI, USA). […] Absorbance was measured at 540 nm with a VersaMax microplate reader (Molecular Devices, Sunnyvale, CA, USA) and GI50 values were calculated by GraphPad Prism 4.0 (GraphPad, San Diego, CA, USA).

Another test relates to solid cancer cell lines. As to the kind of experiment: SRB cytotoxicity assay, panel of solid cancer cell lines. To be noted: six solid cancer cell lines or the normal cell line, 48 h, read-out: GI50 values against solid cancer cell lines (range over the panel). Here is the method:
as §3, §4

For the compound `COc1cccc2c1C(=O)c1c(O)c3c(c(O)c1C2=O)C[C@@](O)(C(=O)CO)C[C@@H]3O[C@H]1C[C@H](N)[C@H](O)[C@H](C)O1` [Doxorubicin, reference compound], the GI50 (usually the concentration at which growth is held to half of that of the control) is 0.008 µM in [1]; 0.314 µM in [2]; 0.305 µM in the test on HCT-15 (colon); 0.035 µM in [3]; 0.222 µM in the test on ACHN (renal); 0.007 µM in test [4]. The GI50 was found to be 0.094 µM in test [5]; 0.245 µM in the test on NUGC-3 (stomach); 0.21 µM with MDA-MB-231 (breast); 0.012 µM in test [6]; 0.221 µM in the test on NCI-H23 (lung); 0.106 µM with PC-3 (prostate). For the same compound, the GI50 in test [7] is 0.029 µM; in test [8] it was 0.014 µM; in the test with U266 (multiple myeloma), 0.112 µM.

As to `C=C1C[C@@]23C[C@@H]1CC[C@]2(O)[C@@]1(C)CC[C@H](O)C(C)(C)[C@@H]1[C@H](O)C3` [compound 1, geliboluol A], the GI50 (in [1]; in test [2]; in the test on HCT-15 (colon); in [3]; in the test on ACHN (renal); in [4]) was greater than 30 µM in each case. Besides, the 50% growth inhibitory concentration (GI50) (in [5]; in the test on NUGC-3 (stomach); in the test on MDA-MB-231 (breast); in test [6]; with NCI-H23 (lung); in the test with PC-3 (prostate)) was greater than 30 µM in each case. The GI50 (in test [7]; in test [8]; in the test on U266 (multiple myeloma)) was greater than 30 µM throughout.

Regarding `C=C1C[C@@]23C[C@@H]1CC[C@]2(O)[C@@]1(C)[C@@H](O)CCC(C)(C)[C@@H]1[C@H](O)C3` [compound 2, geliboluol B], the GI50 (in [1]; in test [2]; with HCT-15 (colon); in [3]; in the test with ACHN (renal); in [4]) was greater than 30 µM in each case. For the same compound, the GI50 (in test [5]; in the test on NUGC-3 (stomach); with MDA-MB-231 (breast); in test [6]; with NCI-H23 (lung); in the test on PC-3 (prostate)) was greater than 30 µM in each case. Besides, the 50% growth inhibitory concentration (GI50) (in test [7]; in [8]; with U266 (multiple myeloma)) was greater than 30 µM throughout.

Consider `C=C1C[C@@]23C[C@@H]1CC[C@]2(O)[C@@]1(C)CCC[C@@](C)(CO)[C@@H]1[C@H](O)C3` [compound 3, geliboluol C], for which the GI50 (in test [1]; in test [2]; with HCT-15 (colon); in [3]; in the test on ACHN (renal); in test [4]) was greater than 30 µM throughout. The GI50 (in [5]; in the test with NUGC-3 (stomach); with MDA-MB-231 (breast); in test [6]; in the test on NCI-H23 (lung); with PC-3 (prostate)) was greater than 30 µM each time. The GI50 (in [7]; in test [8]; in the test with U266 (multiple myeloma)) was greater than 30 µM each time.

On to `C=C1C2CCC3(O)C4(C)CCCC(C)(CO)C4C(O)CC3(C2)C1O` (centres unmarked) [compound 4, geliboluol D], for which the GI50 in [1] is 3.48 µM; in test [2], 7.23 µM; in the test on HCT-15 (colon), 5.73 µM; in test [3], 8.51 µM; with ACHN (renal), 4.58 µM; with blood cancer cell lines, 2.59 to 19.6 µM. Also, the concentration for 50% growth inhibition (GI50) is 2.59 µM in [4]; 19.6 µM in [5]; 4.34 µM with NUGC-3 (stomach); 5.73 µM in the test on MDA-MB-231 (breast); 4.52 µM in test [6]; 4.34 to 7.23 µM in the test on solid cancer cell lines. The concentration for 50% growth inhibition (GI50) was 5.13 µM with NCI-H23 (lung); 6.5 µM in the test with PC-3 (prostate); 11.2 µM in [7]; 2.73 µM in test [8]; greater than 30 µM in the test on U266 (multiple myeloma).

In the case of `C=C1C[C@@]23C[C@@H]1CC[C@]2(O)[C@@]1(C)CCCC(C)(C)[C@@H]1[C@H](O)C3` [compound 5], the GI50 in [1] was 5.93 µM; in [2], greater than 30 µM; in the test with HCT-15 (colon) it was greater than 30 µM; in test [3] it was 11.1 µM; in the test with ACHN (renal), greater than 30 µM; in test [4] it was 7.34 µM. Besides, the 50% growth inhibitory concentration (GI50) is 11.9 µM in test [5]; greater than 30 µM in the test with NUGC-3 (stomach); greater than 30 µM in the test on MDA-MB-231 (breast); 9.56 µM in [6]; greater than 30 µM in the test on NCI-H23 (lung); greater than 30 µM in the test with PC-3 (prostate). For the same compound, the 50% growth inhibitory concentration (GI50) came out at 16.4 µM in test [7], 4.58 µM in [8] and 22.5 µM in the test on U266 (multiple myeloma).
